# Reference: patent US6451544B2, “Identification of agents that protect against inflammatory injury to neurons” (Baylor College of Medicine, priority 1996, dated 2002)
# Entries after “also recorded” stand apart in the source; their conditions may differ. Peptide text beside a SMILES is read from it.
# What was measured:
# [1] = tested on: rat microglia stimulated with Aβ1-42; human microglia stimulated with fraction S5; test: Drug blockade of Aβ induced neuron killing by rat and human microglia; assay type: cell-based; conditions: vitamin E 100 μM, catalase 25 units/ml, glutathione 100 μM, L-NIO 10 μM, DPI 300 nM, glutamate antagonists 10 μM
# Excerpt: A number of cytotoxic factors have been reported to participate in Aβ neurotoxicity, including radicals (Behl et al., 1994), nitric oxide (Meda et al., 1995), cytokines (Mrak et al., 1995), and NMDA-like molecules (Giulian et al., 1995a).
# [2] = assay type: physicochemical
# Experimental: Properties and sources of amyloid peptides. […] Solubility of peptides is described for chemically-defined culture media at 37° C.
# [3] = tested on: HEK cells expressing NMDA1b/2A; test: NTox exposure of HEK cells expressing NMDA receptors (trypan blue); assay type: cell-based, human
# Excerpt: FIG. 6A) Photomicrograph of trypan blue(+) control HEK cells exposed to NTox.
# Presence of neurotoxic activity will be determined by reduction in cell number, changes in biochemical markers such as loss of cell metabolic function, release of intracellular material, penetration of impermeant dyes, such as and not limited to fluorescent nuclear dyes and trypan blue (FIG. 6), reduction of the number of neurons, loss of neurofilament or synaptophysin, release of lactate dehydrogenase, or other evidence of cell injury.
# [4] = tested on: microglia stimulated by Aβ1-42; test: In vitro screening of drugs which inactivate microglia stimulated by Aβ1-42; assay type: cell-based; conditions: mixed with Aβ peptides; for prevention of neurotoxic microglia, signal transduction inhibitors: test concentrations 0.01 to 100 μM
# Excerpt: Such in vitro assays permit rapid screening of drugs with therapeutic potential for Alzheimer Disease.
# Such in vitro assays permit rapid screening of drugs which serve as lead compounds for development of therapeutics for Alzheimer Disease.
# Once activated by plaque components, microglia release neurotoxic agents. Although many drugs are known to suppress the immune system outside the brain, it is not known which drugs actually have the ability to inactivative plaque-stimulated microglia within the brain and thus prevent the immune-mediated damage caused by Alzheimer Disease. […] Activated microglia also require intracellular events signaled by signal transducers, to convert the plaque or Aβ complex formation with microglia into cellular events which lead to the production and release of neurotoxins including NTox. […] Thus, the use of the microglia-neuron assay systems allowed identification of specific drug families with value in the treatment of Alzheimer Disease.
# neurons = test: Neuroprotective effects of NTox-like compounds; assay type: cell-based
# [5] = tested on: rat hippocampal cultures supplemented with microglia; test: Neurotoxicity assay: hippocampal neuron cultures supplemented with microglia (induction of neurotoxic microglia); assay type: cell-based
# Excerpt: Rat microglia were isolated from newborn animals using the method of Giulian and Baker, 1986, with recovery of >98% homogenous population monitored by binding the fluorescent probe acetylated low density lipoprotein labeled with 1,1′-dioctadecyl-3,3,3′,3′-tetramethyl-indo-carbocyanine [Dil-ac-LDL]). Amyloid proteins were isolated from AD neocortical gray matter laden with neuritic and core plaques with final separations involving a discontinuous sucrose gradient. […] Cultured neurons prepared from rat hippocampus consisted of process-bearing neurons (10-20% of total cell population) atop a bed of astroglia (>70%) mixed with microglia (5-10%). In order to eliminate microglia, cultures were exposed saporin (a ribosome-inactivating protein) coupled to acetylated LDL (ac-LDL) for 10 pg/ml for 18 hours. […] After 14 days in vitro, cultures (with a final concentration of 0.6% serum) were exposed to test substances in the presence or absence of exogenous microglia for 72 hours. […] Data were expressed as % mean survival expressed in terms of parallel untreated control cultures after scoring at least 8 randomly selected fields for each of 3 coverslips from at least 3 independent experiments. […]
# rat microglia = test: Binding of Aβ peptide-coupled fluorescent microspheres to microglia; conditions: 1 micron fluorescent microspheres
# Experimental: Fluoresbrite carboxylate microspheres (YG 1.0 μm, Polysciences; 0.5 ml of a 2.5% suspension) were washed twice in 0.1 M carbonate buffer (pH 9.6) and three times in 0.02 M sodium phosphate (pH 4.5). Carbodiimide was then added dropwise to a final concentration of 1% and the suspension mixed for 4 hours at room temperature. Following 3 more washes in 0.02M sodium phosphate, the pellet was resuspended in 1.2 ml of 0.2 M borate buffer (pH 8.5) and 300 μg Aβ (or control peptide) and 5% DMSO added. After overnight mixing at room temperature, the microspheres were blocked by 1 M glycine (pH 8.0) for 30 minutes and washed in 10 mg/ml BSA in phosphate buffer.
# To delineate further which portions of the Aβ peptide served as a microglial binding site, a variety of synthetic peptides coupled to 1 micron diameter microspheres was next compared.
# brain neocortex = test: Microsphere implants in brain neocortex; assay type: in vivo
# Excerpt: FIGS. 7A, B, and C show SpheresAβ1-42 in vivo. Weeks after implantation of large microspheres (250 micron diameter) remain embedded within brain neocortex (FIG. 7A). […] Microglia were visualized by uptake of fluorescent labeled acetylated LDL, Dil-ac-LDL Bar=40 μm, FIG. 7A; 25 μm FIGS. 7B and C.
# Data support histological changes.
# In vivo binding, activation, and neurotoxicity assays involve infusion of a tagged plaque component coupled to a solid support such as microspheres (FIG. 7) into a mammalian brain. Following infusion of materials, a test compound may be co-injected into the brain intraventricularly or intracranially by cannula with delivery systems including syringes or implanted osmotic pumps. A test compound may also be delivered systemically by intraperitoneal, intravenous, intra-arterial, nasal, or oral routes. Evidence of immune activation of the brain by a plaque component may be monitored using histological, biochemical, or molecular methods such as quantitative reverse transcriptase polymerase chain reaction method to identify cell markers of immune responses including surface proteins, enzymes, or cytokines (FIG. 8). The production of neurotoxic activity may be assayed by histochemical (FIG. 7) or biochemical to identify cell markers of immune responses including injury or destruction of neurons. […]
# microglia = test: SpheresAβ1-42 binding to microglia; set-up: species or system rat; conditions: for SpheresAβ1-42 binding to microglia in presence of GAGs or scavenger receptor ligands: heparin sulfate 50 μg/ml, dextran sulfate 500 μg/ml, ac-LDL 200 μg/ml
# Experimental: (§1) Isolated microglia (1000 per mm^2 ) were placed atop 16 mm glass coverslips in 24-well culture plates. Each well then received 250,000 SpheresAβ1-42 or Spheresmal-BSA in the presence or absence of Aβ peptides, GAGs, or scavenger receptor ligands. Binding assays were carried out at 37° C. for 4 hours after which coverslips were dipped 10 times in phosphate buffer and fixed with 4% buffered paraformaldehyde. Microsphere adherence to cells was scored at 200 magnification with phase/fluorescence microscopy. Data, expressed as % inhibition of sphere binding, was calculated from total number of spheres per field noted for control cultures receiving spheres only. Values are based upon at least 3 coverslips from 2 independent experiments. Fluoresbrite carboxylate YG microspheres (1.0 micron diameters; 0.5 ml of a 2.5% suspension) were activated with 1% carbodiimide for 4 hr at room temperature. Washed spheres were resuspended in 0.2 M borate buffer (pH 8.5) in the presence of 300 μg Aβ or 400 μg BSA in 6% DMSO. After overnight mixing at room temperature, the spheres were washed extensively and blocked by 1 M glycine (pH 8.0) for 30 minutes. Maleylation of coupled BSA was carried out at room temperature by adding 1 M maleic anhdyride in acetonitrile at pH 9.0.
# scavenger receptors = test: Spheresmal-BSA binding to microglia; set-up: species or system rat
# Experimental: as §1
# [6] = trypsin 5000 units/ml 60 min, heparinase 2 x 0.01 units/ml, chondroitinase ABC 2 x 0.02 units/ml
compound,measurement,setting,value
NC(CCCP(=O)(O)O)C(=O)O (stereo not drawn) [AP5],protection against microglia-mediated neuron killing,[1],prevented neuronal loss; also recorded: prevented neuron death
NC(CCCCCP(=O)(O)O)C(=O)O (stereo not drawn) [AP7],protection against microglia-mediated neuron killing,[1],prevented neuronal loss; also recorded: blocked neuron death
CC(C)C[C@H](NC(=O)[C@H](CCCCN)NC(=O)[C@H](CCC(N)=O)NC(=O)[C@H](Cc1cnc[nH]1)NC(=O)[C@H](Cc1cnc[nH]1)NC(=O)[C@@H](N)C(C)C)C(=O)N[C@H](C(=O)N[C@@H](Cc1ccccc1)C(=O)N[C@@H](Cc1ccccc1)C(=O)N[C@@H](C)C(=O)N[C@@H](CCC(=O)O)C(=O)N[C@@H](CC(=O)O)C(=O)N[C@H](C(=O)NCC(=O)N[C@@H](CO)C(=O)N[C@@H](CC(N)=O)C(=O)N[C@@H](CCCCN)C(=O)O)C(C)C)C(C)C [Aβ12-28],Solubility,[2],soluble
CC[C@H](C)[C@H](NC(=O)[C@H](C)NC(=O)CNC(=O)[C@H](CCCCN)NC(=O)[C@H](CC(N)=O)NC(=O)[C@H](CO)NC(=O)CNC(=O)[C@@H](NC(=O)[C@H](CC(=O)O)NC(=O)[C@H](CCC(=O)O)NC(=O)[C@H](C)NC(=O)[C@H](Cc1ccccc1)NC(=O)[C@H](Cc1ccccc1)NC(=O)[C@@H](NC(=O)[C@@H](N)CC(C)C)C(C)C)C(C)C)C(=O)N[C@H](C(=O)NCC(=O)N[C@@H](CC(C)C)C(=O)N[C@@H](CCSC)C(=O)N[C@H](C(=O)NCC(=O)NCC(=O)N[C@H](C(=O)N[C@H](C(=O)N[C@H](C(=O)N[C@@H](C)C(=O)O)[C@@H](C)CC)C(C)C)C(C)C)C(C)C)[C@@H](C)CC [Aβ17-42] (H-LVFFAEDVGSNKGAIIGLMVGGVVIA-OH; N-terminus and C-terminus assumed),Solubility,[2],very insoluble
CC[C@H](C)[C@H](NC(=O)[C@H](C)NC(=O)CNC(=O)[C@H](CCCCN)NC(=O)[C@H](CC(N)=O)NC(=O)[C@H](CO)NC(=O)CN)C(=O)N[C@H](C(=O)NCC(=O)N[C@@H](CC(C)C)C(=O)N[C@@H](CCSC)C(=O)O)[C@@H](C)CC [Aβ25-35] (H-GSNKGAIIGLM-OH; N-terminus and C-terminus assumed),Solubility,[2],soluble
"c1ccc([I+]c2ccccc2)cc1 [DPI, diphenyl iodonium]",protection against microglia-mediated neuron killing,[1],no reduction of microglia-mediated neuron killing; also recorded: No protective effects were observed
N[C@H](CCC(=O)NCS(=O)(=O)O)C(=O)O [GAMS],protection against microglia-mediated neuron killing,[1],did not
"CC(=N)NCCC[C@H](N)C(=O)O.Cl [L-NIO, L-N-5-(1-imin-oethyl)ornithine hydrochloride]",protection against microglia-mediated neuron killing,[1]; hydrochloride,no reduction of microglia-mediated neuron killing; also recorded: No protective effects were observed
C[C@]12N[C@H](Cc3ccccc31)c1ccccc12 [MK-801],blockade of NTox killing effect,[3],could be blocked
same,protection against microglia-mediated neuron killing,[1],prevented neuronal loss
same,protection against microglia-mediated neuron killing,[1]; listed as MK801,blocked neuron death
CCN(CC)CCCC(C)Nc1ccnc2cc(Cl)ccc12 (stereo not drawn) [chloroquine],"prevention of neurotoxic microglia, immuno-suppressive drugs",[4]; test concentrations 0.1 to 10 μM,had a protective effect; also recorded: block neuron killing
COc1c(C=O)c(O)cc2c1C(=O)c1ccccc1C2=O [damacanthal],"prevention of neurotoxic microglia, signal transduction inhibitors",[4],had a protective effect
O=c1c(-c2ccc(O)cc2)coc2cc(O)cc(O)c12 [genistein],"prevention of neurotoxic microglia, signal transduction inhibitors",[4],had a protective effect
N[C@@H](CCC(=O)N[C@@H](CS)C(=O)NCC(=O)O)C(=O)O [glutathione],protection against microglia-mediated neuron killing,[1],no reduction of microglia-mediated neuron killing; also recorded: did not block microglial killing of neurons
CC(C(O)c1ccc(O)cc1)N1CCC(Cc2ccccc2)CC1 (stereo not drawn) [ifenprodil],protection against microglia-mediated neuron killing,[1],prevented neuronal loss; also recorded: blocked neuron death
NCCc1ccc(O)cc1 [tyramine],protection of neurons against quinolinic acid,neurons; 100 μM quinolinic acid (QUIN),protective effect did not occur; also recorded: did not block
same,protection of neurons against NTox / Aβ1-42-stimulated microglia,neurons; microglia stimulated with Aβ1-42 or isolated NTox applied to neurons,prevented neuronal injury; also recorded: did not damage neurons in the presence of tyramine
SpheresAβ1-42: Aβ1-42 coupled to microspheres,"capacity to elicit neurotoxic microglia, coupled to microspheres or in solution","[5]; 250,000 microspheres per culture, 100,000 microglia per culture, 72 hour incubation",induced neuron killing
same,uptake of peptide-coupled microspheres by microglia in culture,rat microglia,rapidly engulfed by cultured microglia
same,reactive microglia around implanted microspheres,"brain neocortex; 250 micron spheres, weeks after implantation",chronically stimulate the presence of reactive cells
same,increase in scavenger receptor II mRNA in tissue surrounding implant,"brain neocortex; two weeks after implantation, vs undamaged control tissue or SphereBSA",5 fold
catalase,protection against microglia-mediated neuron killing,[1],no reduction of microglia-mediated neuron killing; also recorded: did not block microglial killing of neurons
chondroitin sulfate,SpheresAβ1-42 binding to microglia in presence of GAGs or scavenger receptor ligands,microglia,not similar compounds; also recorded: only heparin sulfate blocked
dextran sulfate,SpheresAβ1-42 binding to microglia in presence of GAGs or scavenger receptor ligands,microglia,not similar compounds
same,SpheresAβ1-42 binding to microglia in presence of GAGs or scavenger receptor ligands,microglia; listed as dextm sulfate,only heparin sulfate blocked
same,Spheresmal-BSA binding to microglia in presence of ligands,"scavenger receptors; dextran sulfate 500 μg/ml, ac-LDL 200 μg/ml, Aβ1-16 10 μmole/l",blocked Spheresmal-BSA binding
heparin sulfate,SpheresAβ1-42 binding to microglia in presence of GAGs or scavenger receptor ligands,microglia,reduction of binding; also recorded: blocked SpheresAβ1-42 binding
same,SpheresAβ1-42 binding to microglia in presence of GAGs or scavenger receptor ligands,microglia; listed as heparan sulfate,block Aβ binding to microglia
"rodent Aβ1-42: rodent form of Aβ1-42 (DAEFGHDSGFEVRHQKLVFFAEDVGSNKGAIIGLMVGGVVIA; Amyloid-beta protein 42; UniProt P12023 672-713, looked up, fragment)",induction of neurotoxic microglia / neuron killing in presence of microglia,"[5]; peptide in solution, typically 1 μmole/l, 72 hours, microglia 500 per mm^2",does not induce toxicity
trypsin,SpheresAβ1-42 binding after enzymatic pre-treatment of microglia,microglia; [6],reduced
same,Spheresmal-BSA binding after enzymatic pre-treatment of microglia,scavenger receptors; [6],reduced
vitamin E,protection against microglia-mediated neuron killing,[1],no reduction of microglia-mediated neuron killing; also recorded: did not block microglial killing of neurons
